Results: patent US7955808B2, “Bitter taste receptors” (Deutsches Institut für Ernährungsorschung, Stiftung des …, priority 2002, dated 2011)
Read-outs that look alike come from different tables or passages of the source.

Key:
[1] = target: T1, hTAS2R10 (Homo sapiens, UniProt Q9NYW0, T156M); assay: FLIPR assay, heterologous expression of hTAS2R10; format: cell-based
T1 construct: gene-specific primers that span the complete coding region of the individual hTAS2R genes; first 45 amino acids of rat somatostatin type 3 receptor (cell surface-targeting signal) (N); expressed in transfected cells; host or cells: HEK-293T-Gα16gustducin44 cells (alternatively HEK-293 co-transfected with phospholipase-Cβ2 and α-gustducin)
T1 sequence (Q9NYW0 1-307 T156M): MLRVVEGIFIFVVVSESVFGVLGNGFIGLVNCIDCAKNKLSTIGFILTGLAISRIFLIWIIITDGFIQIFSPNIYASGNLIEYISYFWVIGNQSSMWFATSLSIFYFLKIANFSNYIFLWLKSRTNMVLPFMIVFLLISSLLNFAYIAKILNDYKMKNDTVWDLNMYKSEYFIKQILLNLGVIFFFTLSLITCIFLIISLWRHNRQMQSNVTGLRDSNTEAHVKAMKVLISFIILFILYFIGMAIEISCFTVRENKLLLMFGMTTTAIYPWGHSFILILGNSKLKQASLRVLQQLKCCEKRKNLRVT
From the text: (§1) Transient transfection of TAS2Rs into HEK-293T-Gα16gustducin44 cells.

[2] = tested on: human panelists; assay: Human taste experiments: bitter thresholds and dose-response by sensory panel; format: in vivo; conditions: for Threshold Value Human: bitter threshold, triangle test, tap water; for EC50: bitterness intensity dose-response
Description: 15 experienced panelists in a sensory panel room at 22-25° C. determined bitter thresholds on three different sessions using a triangle test with tap water as solvent, according to methodology set out in J. Agric. Food Chem., 49, 231-238 (2001), or Mailgaard M et al, “Sensory Evaluation Techniques” (CRC Press LLC, New York 1999). For dose-response relations, bitter tastant concentration series were presented to 10 trained panelists in random order. The panelists ranked the samples in increasing order of intensity and, for each concentration, evaluated bitterness intensity on a scale from 0 to 5 (ref. 24). The dose-response curves of three different sessions were averaged. The intensity values between individuals and separate sessions differed by not more than 0.5 units.

[3] = target: T2, hTAS2R16 (Homo sapiens, UniProt Q9NYV7, R222H); assay: FLIPR calcium assay, hTAS2R16-expressing HEK293/15 transfectants; format: cell-based
T2 construct: gene-specific primers that span the complete coding region of the individual hTAS2R genes; first 45 amino acids of rat somatostatin type 3 receptor (cell surface-targeting signal) (N); expressed in transfected cells; host or cells: HEK293/15 cells (HEK293 stably expressing Galpha15), transient transfection
T2 sequence (Q9NYV7 1-291 R222H): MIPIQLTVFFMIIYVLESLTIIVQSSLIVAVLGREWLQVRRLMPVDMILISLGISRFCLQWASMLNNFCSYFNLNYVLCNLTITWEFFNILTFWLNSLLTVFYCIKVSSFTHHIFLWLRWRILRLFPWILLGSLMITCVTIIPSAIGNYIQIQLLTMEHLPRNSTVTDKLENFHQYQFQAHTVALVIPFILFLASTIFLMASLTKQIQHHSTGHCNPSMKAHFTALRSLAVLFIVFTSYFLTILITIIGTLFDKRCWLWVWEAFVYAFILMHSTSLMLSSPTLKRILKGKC
Description: A fluorescence imaging plate reader (FLIPR, Molecular Devices) was used to functionally screen cell populations transiently transfected with expression vectors encoding the above-described 24 bitter receptors and to establish concentration-response curves for hTAS2R16 and hTASR10. […] For the FLIPR experiments the HEK293/15 cells were grown to 50% confluence. […] After 48 h the cells in each well were transfected using Lipofectamine 2000 and 24-30 h later were loaded with FIuo4AM (Molecular Probes). Thereafter they were stimulated with bitter compounds (SigmaAldrich, further purified by reversed-phase HPLC to >99% purity). Calcium signals were recorded simultaneously from each well at 1 Hz at 510 nm after excitation at 488 nm and the recordings were corrected for cell density. […] The calculations rest on at least four independent transfection experiments.
EC50 and threshold values obtained with hTAS2R16-expressing transfectants are shown in Table 1 below and the results are described in Example 4.

[4] = tested on: human panelists; assay: Human taste adaptation experiment; format: in vivo
Description: To investigate adaptation, the 8 panelists first maintained aqueous solutions (5 ml) of phenyl-β-D-glucopyranoside (8 mM), phenyl-alpha-D-glucopyranoside (180 mM), salicin (8 mM), or helicin (8 mM) for 15 s in their oral cavities and evaluated the bitter intensity as described above. After 30 min, they kept a denatonium benzoate solution (5 ml, 0.0003 mM) for 15 s in their mouth and evaluated its bitterness. The panelists spat off the denatonium benzoate solution, took up the phenyl-β-D-glucopyranoside or the phenyl-alpha-D-glucopyranoside solutions orally for 120 s or 180 s and judged their bitterness intensity after 15, 30, 60, 120 and 180s. Thereafter, the panelists spat off these solutions and then sequentially took up salicin, helicin (5 ml, 8 mM) and denatonium benzoate (5 ml, 0.0003 mM) and evaluated bitterness intensities of these solutions after 15 s. After an additional 30 min, the first experiment was repeated. The data of three different sessions for each panelist were averaged. Intensity values between individuals and separate sessions differed by not more than ±0.5 units.

[5] = target: T3, hTAS2R38 (Homo sapiens, UniProt P59533); assay: FLIPR assay, heterologous expression of hTAS2R38; format: cell-based
T3 construct: gene-specific primers that span the complete coding region ... contains the first 45 amino acids of the rat somatostatin type 3 receptor
T3 sequence (P59533 1-333 A49P/I296V): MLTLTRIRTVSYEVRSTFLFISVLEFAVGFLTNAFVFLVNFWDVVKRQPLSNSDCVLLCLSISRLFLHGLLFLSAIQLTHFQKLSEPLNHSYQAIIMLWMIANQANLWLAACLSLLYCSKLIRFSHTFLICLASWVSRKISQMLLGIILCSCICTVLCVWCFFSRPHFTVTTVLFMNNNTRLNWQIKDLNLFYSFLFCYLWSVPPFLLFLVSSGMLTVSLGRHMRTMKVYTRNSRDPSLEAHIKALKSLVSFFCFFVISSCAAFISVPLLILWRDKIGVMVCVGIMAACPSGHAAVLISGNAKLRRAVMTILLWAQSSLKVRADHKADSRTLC
From the text: These cells stably express a chimeric G protein constructed from human Gα16 and rat gustducin. Finally, we seeded the transfected cells at a density of 3×10^3 cells per well into 96-well black-wall, clear-bottom microtiter plates (Greiner).
Co-transfection of TAS2Rs with gustducin and phospholipase-Cβ2 into HEK-293 cells. Alternatively, we transfected simultaneously plasmid DNAs encoding one of the TAS2Rs, phospholipase-Cβ2 and α-gustducin into HEK-293 cells using the lipofectamine method. Additional cotransfection of G-protein β and γ-subunits may improve the bitter tastant-induced responses. Thereafter, the transfected cells were seeded at a density of 3×10^3 cells per well into 96-well black-wall, clear-bottom microtiter plates (Greiner).
Thereafter, cells were gently washed in HBS by an automated plate washer (Denley Cellwash, Labsystenms) and transferred to the FLIPR (Molecular Devices). The FLIPR integrates an argon laser excitation source, a 96-well pipettor, and a detection system utilizing a Charged Coupled Device imaging camera. […] Fluorescence data were collected 1 min before and 10 min after stimulation. Data were collected every 6 s before and every 1 s after agonist stimulation. 50 μl of 3× concentrated agonists were delivered within 2 by the integrated 96-well pipettor to the wells containing 100 μl HBS. Agonist responses were quantified using the amplitudes of the fluorescence peaks. We averaged the responses of five wells containing cells expressing the same receptor and that received the same stimulus. Calcium traces were determined in triplicate of mock-transfected cells stimulated with the same concentration of tastant.

[6] = target: T2, hTAS2R16; assay: FLIPR assay, heterologous expression of hTAS2R16; format: cell-based
From the text: as §1

Molecule: COc1cc2c(cc1OC)[C@@]13CCN4CC5=CCO[C@H]6CC(=O)N2[C@H]1[C@H]6[C@H]5C[C@H]43 [Brucine]
- EC50 [1]: 60 µM
- Approx. Threshold ([1]; hTAS2R10): 0.01 mM
- receptor activation (in words) ([1]; hTAS2R10): activated

Molecule: OC[C@H]1O[C@@H](Oc2ccccc2)[C@H](O)[C@@H](O)[C@H]1O [Compound 10, phenyl-beta-D-galactopyranoside]
- Threshold Value Human [2]: 40 ± 13 mM
- EC50 [3]: > 100000 µM
- Threshold Value FLIPR [3]: n.r. (No response up to 100 mM)

Molecule: OCC1OC(Oc2ccccc2)C(O)C(O)C1O [Compound 11, phenyl-alpha-D-glucopyranoside]
- EC50 ([2]; Homo sapiens): 50000 µM
- Threshold Value Human [2]: 9 ± 3 mM
- EC50 [3]: > 100000 µM
- Threshold Value FLIPR [3]: n.r. (No response up to 100 mM)
- own bitterness during prolonged stimulation (adaptation) ([4]; 120 s or 180 s in the mouth): desensitized strongly
- cross-adaptation with all tested beta-D-glucopyranosides ([4]; in vivo): failed to cross-adapt

Molecule: N,N-dimethylthioformamide [N,N-Dimethyl- thioformamide]
- Approx. Threshold [5]: 10 µM
- receptor activation (in words) [5]: activated
- EC50 ([5]; read-out: EC50): 55 µM

Molecule: O=[N+]([O-])c1ccc(O[C@@H]2O[C@H](CO)[C@@H](O)[C@H](O)[C@H]2O)cc1 [4-Nitrophenyl-β-D-Glucoside]
- Threshold ([6]; hTAS2R16): 1 − 3 mM

Molecule: CN(C)C(=S)N(C)C [Tetramethylthiourea]
- Approx. Threshold [5]: 10 to 30 µM
- receptor activation (in words) [5]: activated
- EC50 ([5]; read-out: EC50): 100 µM

Molecule: O=c1ccc2cc(O[C@@H]3O[C@H](CO)[C@@H](O)[C@H](O)[C@H]3O)c(O)cc2o1 [Compound 9, esculin]
- Threshold Value Human [2]: 4 ± 1 mM
- Threshold Value FLIPR [3]: 4 ± 2 mM
- Threshold ([6]; hTAS2R16): 4 ± 2 mM

Molecule: O=[N+]([O-])c1ccccc1O[C@@H]1O[C@H](CO)[C@@H](O)[C@H](O)[C@H]1O [Compound 5, 2-nitro-phenyl-beta-D-glucopyranoside]
- Threshold Value FLIPR [3]: 1.5 ± 0.5 mM
- Threshold ([6]; hTAS2R16): 0.3 − 1 mM

Molecule: O=[N+]([O-])c1ccc(O[C@@H]2O[C@H](CO)[C@@H](O)[C@H](O)[C@@H]2O)cc1 [4-Nitrophenyl-β-D-Mannoside]
- Threshold ([6]; hTAS2R16): 1 − 3 mM

Molecule: O=c1cc(O)[nH]c(=S)[nH]1 [2-Thiobarbituric acid]
- reacts at [5]: reacts at 10 mM
- receptor activation (in words) [5]: activated

Molecule: CC(=O)NC(N)=S [Acetylthiourea]
- Approx. Threshold [5]: 2 µM
- receptor activation (in words) [5]: activated
- EC50 ([5]; read-out: EC50): 15 µM

Molecule: OC[C@H]1O[C@@H](Oc2ccc(O)cc2)[C@H](O)[C@@H](O)[C@@H]1O [Compound 4, arbutin]
- Threshold Value Human [2]: 0.9 ± 0.3 mM
- EC50 [2]: 5400 µM
- EC50 [3]: 5800 µM
- Threshold Value FLIPR [3]: 0.5 ± 0.2 mM
- Threshold ([6]; hTAS2R16): 0.5 ± 0.2 mM
- EC50 ([6]; hTAS2R16, read-out: EC50): 5800 ± 900 µM

Molecule: Thioacetamide
- Approx. Threshold [5]: 100 µM
- receptor activation (in words) [5]: activated

Molecule: N-Methylthiourea
- Approx. Threshold [5]: 100 µM
- receptor activation (in words) [5]: activated
- EC50 ([5]; read-out: EC50): 600 to 800 µM

Molecule: O=[N+]([O-])c1ccc(S[C@@H]2O[C@H](CO)[C@@H](O)[C@H](O)[C@H]2O)cc1 [4-Nitrophenyl-β-D-Thioglucoside]
- Threshold ([6]; hTAS2R16): 1 − 5 mM

Molecule: N#CC(O[C@@H]1O[C@H](CO[C@@H]2O[C@H](CO)[C@@H](O)[C@H](O)[C@H]2O)[C@@H](O)[C@H](O)[C@H]1O)c1ccccc1 (stereo partly drawn) [Compound 8, amygdalin]
- EC50 [3]: 20000 µM
- EC50 [6]: 20000 ± 3400 µM

Molecule: Cc1cc(=O)[nH]c(=S)[nH]1 [4(6)-Methyl-2-thiouracil]
- Approx. Threshold [5]: 20 µM
- receptor activation (in words) [5]: activated
- EC50 ([5]; read-out: EC50): 180 µM

Molecule: COC1OC(CO)C(O)C(O)C1O [Compound 7, methyl-beta-D-lucopyranoside]
- Threshold Value Human [2]: 32 ± 11 mM

Molecule: O=c1cc[nH]c(=S)[nH]1 [Compound 2-Thiouracil, 2-Thiouracil]
- Approx. Threshold [5]: 300 µM
- receptor activation (in words) [5]: activated
- EC50 ([5]; read-out: EC50): ~2000 µM

Molecule: CCNC(N)=S [N-Ethylthiourea]
- Approx. Threshold [5]: 30 µM
- receptor activation (in words) [5]: activated
- EC50 ([5]; read-out: EC50): 260 µM

Molecule: OC[C@H]1O[C@@H](Oc2ccc3ccccc3c2)[C@H](O)[C@@H](O)[C@@H]1O [Compound 6, naphthyl-beta-D-pyranoside]
- EC50 ([2]; Homo sapiens): 1400 µM
- Threshold Value Human [2]: 0.2 ± 0.1 mM
- EC50 [3]: 1000 µM
- EC50 ([6]; hTAS2R16, read-out: EC50): 1000 ± 100 µM

Molecule: S=C1NCCN1 [2-Imidazolidinethione]
- Approx. Threshold [5]: 10 µM
- receptor activation (in words) [5]: activated

Molecule: CC(=S)Nc1ccccc1 [Thioacetanilide]
- Approx. Threshold [5]: 3 µM
- receptor activation (in words) [5]: activated
- EC50 ([5]; read-out: EC50): 18 µM

Molecule: NC(=S)Nc1ccccc1 [Phenylthiocarbamid]
- Approx. Threshold [5]: 0.3 µM
- EC50 [5]: 2 µM
- receptor activation (in words) [5]: activated
